What was measured:
[1] = system: hypertriglyceridemic patients with cardiovascular disease or at high risk for cardiovascular disease; details: in vivo
Description: Specification of Variables and Procedures: Safety assessments included adverse events, clinical laboratory measurements (chemistry, hematology), 12-lead ECGs, vital signs (systolic and diastolic blood pressure, heart rate, respiratory rate, and body temperature), weight, waist circumference, and physical examinations as per Study Procedures in Table 1. […] All laboratory test results were evaluated by the investigator as to their clinical significance. Any observations at physical examinations or laboratory values considered by the investigator to be clinically significant were considered an adverse event.
An adverse event can therefore be any unfavorable and/or unintended sign (including an abnormal laboratory finding), symptom, or disease temporally associated with the use of an investigational medication product, whether or not related to the investigational medication product. All adverse events, including observed or volunteered problems, complaints, or symptoms, were recorded on the appropriate CRF. Each adverse event was evaluated for duration, intensity, and causal relationship with the study medication or other factors.
Serious Adverse Events: A serious adverse event (SAE) is defined as an adverse event that meets any of the following criteria: • Results in death; • Is life-threatening—The term “life-threatening” in the definition of “serious” refers to an event in which the patient was at risk of death at the time of the event. […] Important medical events that may not result in death, be life threatening, or require hospitalization were considered an SAE when, based upon appropriate medical judgment, they may have jeopardized the patient and may have required medical or surgical intervention to prevent one of the outcomes listed above.
Adverse Events of Special Interest: Bleeding-related adverse events, glucose control (fasting blood glucose and HbA1c), and indicators of hepatic disorders (e.g., ALT or AST increases >3×ULN, total bilirubin increases of ≥2×ULN) were summarized separately and compared between treatment groups.
Analysis of Safety: All analyses of safety were conducted on the safety population, which was defined as all randomized patients. The safety assessment was based on the frequency of adverse events, physical exams, vital signs and safety laboratory tests. AEs with new onset during the study between the initiation of study drug and 30 days after the last dose of study drug for each patient was considered treatment-emergent (TEAEs). This included any AE with onset prior to initiation of study drug and increased severity after the treatment initiation.
This included overall incidence rates (regardless of severity and relationship to study drug), and incidence rates for moderate or severe adverse events. A summary of SAEs and adverse events leading to early discontinuation (for ≥30 days) were presented through data listings. Patients who restarted study drug were included in the summary of AEs leading to discontinuation. Safety laboratory tests and vital signs were summarized by post-treatment change from baseline for each of the parameters using descriptive statistics by treatment group. Those patients with significant laboratory abnormalities were identified in data listings. Additional safety parameters were summarized in data listings.

[2] = system: statin-treated patients with a history of atherosclerosis or diabetes; experiment: REDUCE-IT Example 3: total (first and subsequent) ischemic events (negative binomial, Andersen-Gill, Wei-Lin-Weissfeld Li-Lagakos, joint frailty; reduced and full dataset); type: in vivo, human; parameters: Relative risk reduction in total (first and subsequent) ischemic events for the primary composite endpoint / First events reduced by / Second events reduced by / Third events reduced by / Fourth or more events reduced by: concentration or dose not given beside the values
Text: The following study was a multi-center, placebo-controlled clinical trial the details of which are described above in Example 1, the REDUCE-IT design. […] The main outcomes were total primary composite endpoint events defined as cardiovascular death, nonfatal myocardial infarction, nonfatal stroke, coronary revascularization, or hospitalization for unstable angina and total key secondary composite endpoint events defined as cardiovascular death, nonfatal myocardial infarction, or nonfatal stroke. In the context of this study, total events refer to any first event as well as any subsequent event. Differences in total events were determined using other statistical models, including Andersen-Gill, Wei-Lin-Weisfeld (Li and Lagakos), both pre-specified, and a post hoc and joint-frailty analysis.
For the present prespecified analysis, the primary outcome was the total of first plus subsequent ischemic events consisting of the composite of cardiovascular death, nonfatal myocardial infarction, nonfatal stroke, coronary revascularization, or hospitalization for unstable angina. […] Exploratory analyses of the total of first and subsequent events were also performed for the key secondary composite endpoint.
Baseline characteristics were compared between treatment groups using the chi-squared test for categorical variables and the Wilcoxon rank sum test for continuous variables. There are several methods for analyzing first and subsequent (recurrent) event data. As a pre-specified statistical method, a negative binomial regression was used to calculate rates and rate ratios for total cardiovascular events, which accounts for the variability in each patient's risk of events. As pre-specified supportive analyses, the modified Wei-Lin-Weissfeld method (Li and Lagakos modification) was used to calculate hazard ratios (HRs) for the time to the first event, second event, or third event. An additional pre-specified analysis, the Andersen-Gill model using a Cox proportional-hazard with the counting-process formulation was performed to model the total events. In addition, in order to account for informative censoring due to cardiovascular death, the HR for total non-fatal events was calculated using a joint frailty model (See Rondeau V. Joint frailty models for recurring events and death using maximum penalized likelihood estimation: application on cancer events. Biostatistics. 2007; 8:708-21). The joint frailty model simultaneously estimates hazard functions for non-fatal and fatal CV events and takes into account the fact that patients who are prone to have nonfatal events have an elevated risk of a cardiovascular death. The application of the joint frailty model used a gamma distribution for the frailty term.
Statistical analyses using the full adjudicated endpoint events dataset without exclusions using this bundling approach were also determined.

[3] = Andersen-Gill (I), full dataset, adjusted for stratification factors, vs placebo
[4] = Andersen-Gill (I), full dataset, vs placebo
[5] = Andersen-Gill (I), reduced dataset, adjusted for stratification factors, vs placebo
[6] = Andersen-Gill (I), reduced dataset, vs placebo
[7] = Andersen-Gill (II), full dataset, adjusted for stratification factors, vs placebo
[8] = Andersen-Gill (II), full dataset, vs placebo
[9] = Andersen-Gill (II), reduced dataset, adjusted for stratification factors, vs placebo
[10] = Andersen-Gill (II), reduced dataset, vs placebo
[11] = Wei-Lin-Weissfeld model (Li and Lagakos)
[12] = modified WLW, full dataset, adjusted for stratification factors, vs placebo
[13] = modified WLW, full dataset, vs placebo
[14] = negative binomial, full dataset, adjusted for stratification factors, vs placebo
[15] = negative binomial, full dataset, vs placebo
[16] = negative binomial, reduced dataset, adjusted for stratification factors, vs placebo
[17] = negative binomial, reduced dataset, vs placebo
[18] = number of events, icosapent ethyl arm N = 4089, full dataset
[19] = number of events, after reduction
[20] = number of events, multiple endpoints in a single calendar day handled as a single event
[21] = share of overall events in the category, after reduction

For `CC/C=C\C/C=C\C/C=C\C/C=C\C/C=C\CCCC(=O)OCC` [Icosapent Ethyl, eicosapentaenoic acid ethyl ester], the “TEAE Upper respiratory tract infection” value ([1]; human) was 312 (7.6%) n (%), the “TEAE Urinary tract infection” value ([1]; human) was 253 (6.2%) n (%) and the Fatal bleeding events [1] was “no fatal bleeding events”. The “Adjusted HR, key secondary composite endpoint” value [2, 3] was 0.71, the “Adjusted HR, primary composite endpoint” value [2, 3] was 0.68 and the “Unadjusted HR, key secondary composite endpoint” value [2, 4] was 0.71. The “Unadjusted HR, primary composite endpoint” value [2, 4] was 0.68, the “Adjusted HR, total key secondary composite endpoint events” value [2, 5] was 0.72 and the “Adjusted HR, total primary composite endpoint events” value [2, 5] was 0.69. The “Unadjusted HR, total key secondary composite endpoint events” value [2, 6] was 0.72, the “Unadjusted HR, total primary composite endpoint events” value [2, 6] was 0.69 and the “Adjusted HR, key secondary composite endpoint” value [2, 7] was 0.71. The “Adjusted HR, primary composite endpoint” value [2, 7] was 0.68, the “Unadjusted HR, key secondary composite endpoint” value [2, 8] was 0.71 and the “Unadjusted HR, primary composite endpoint” value [2, 8] was 0.68. The “Adjusted HR, total key secondary composite endpoint events” value [2, 9] was 0.72, the “Adjusted HR, total primary composite endpoint events” value [2, 9] was 0.69 and the “Unadjusted HR, total key secondary composite endpoint events” value [2, 10] was 0.72. For the same compound, the “Unadjusted HR, total primary composite endpoint events” value [2, 10] was 0.69, the “Cardiovascular deaths prevented per 1000 patients treated for five years” value ([2]; FIG. 38) was 12 and the “Coronary revascularizations prevented per 1000 patients treated for five years” value ([2]; FIG. 38) was 76. For the same compound, the “Episodes of hospitalization for unstable angina prevented per 1000 patients treated for five years” value ([2]; FIG. 38) was 16, the “Myocardial infarctions prevented per 1000 patients treated for five years” value ([2]; FIG. 38) was 42 and the “Strokes prevented per 1000 patients treated for five years” value ([2]; FIG. 38) was 14. The “First occurrence of primary composite endpoint: HR vs placebo” value [2, 11] was 0.75, the “Second occurrence of primary composite endpoint: HR vs placebo” value [2, 11] was 0.68 and the “First events reduced by” value ([2]; in vivo) was 25%. The “Fourth or more events reduced by” value ([2]; in vivo) was 48%, the “Relative risk reduction in total (first and subsequent) ischemic events for the primary composite endpoint” value ([2]; in vivo) was 30% and the “Second events reduced by” value ([2]; in vivo) was 32%. For the same compound, the “Third events reduced by” value ([2]; in vivo) was 31%, the “Adjusted HR, key secondary composite endpoint, first event” value [2, 12] was 0.74 and the “Adjusted HR, key secondary composite endpoint, second event” value [2, 12] was 0.75. The “Adjusted HR, key secondary composite endpoint, third event” value [2, 12] was 0.79, the “Adjusted HR, primary composite endpoint, first event” value [2, 12] was 0.75 and the “Adjusted HR, primary composite endpoint, second event” value [2, 12] was 0.68. The “Adjusted HR, primary composite endpoint, third event” value [2, 12] was 0.70, the “Unadjusted HR, key secondary composite endpoint, first event” value [2, 13] was 0.74 and the “Unadjusted HR, key secondary composite endpoint, second event” value [2, 13] was 0.75. The “Unadjusted HR, key secondary composite endpoint, third event” value [2, 13] was 0.79, the “Unadjusted HR, primary composite endpoint, first event” value [2, 13] was 0.76 and the “Unadjusted HR, primary composite endpoint, second event” value [2, 13] was 0.69. The “Unadjusted HR, primary composite endpoint, third event” value [2, 13] was 0.70, the “Total key secondary endpoint events: rate ratio (RR) vs placebo” value ([2]; negative binomial model) was 0.72 and the “Total primary endpoint events: rate ratio (RR) vs placebo” value ([2]; negative binomial model) was 0.70. The “Adjusted RR, key secondary composite endpoint” value [2, 14] was 0.71, the “Adjusted RR, primary composite endpoint” value [2, 14] was 0.69 and the “Unadjusted RR, key secondary composite endpoint” value [2, 15] was 0.71. For the same compound, the “Unadjusted RR, primary composite endpoint” value [2, 15] was 0.67, the “Adjusted RR, total key secondary composite endpoint events” value [2, 16] was 0.72 and the “Adjusted RR, total primary composite endpoint events” value [2, 16] was 0.70. The “Unadjusted RR, total key secondary composite endpoint events” value [2, 17] was 0.71, the “Unadjusted RR, total primary composite endpoint events” value [2, 17] was 0.68 and the “Total events before reduction, key secondary endpoint” value [2, 18] was 590 n. For the same compound, the “Total events before reduction, primary endpoint” value [2, 18] was 1185 n, the “Fatal events, key secondary endpoint” value [2, 19] was 174 n and the “Fatal events, primary endpoint” value [2, 19] was 174 n. The “Non-fatal events, key secondary endpoint” value [2, 19] was 384 n, the “Non-fatal events, primary endpoint” value [2, 19] was 902 n and the “Total events after reduction, key secondary endpoint” value [2, 20] was 558 n. For the same compound, the “Total events after reduction, primary endpoint” value [2, 20] was 1076 n, the “Fatal events, key secondary endpoint” value [2, 21] was 45.0% and the “Fatal events, primary endpoint” value [2, 21] was 45.0%. The “Total events after reduction, primary endpoint” value [2, 21] was 41.0% and the “Total events before reduction, key secondary endpoint” value ([2]; share of overall events in the category, icosapent ethyl arm N = 4089) was 42.0%.

Reference: patent publication US11298333B1, “Methods of reducing the risk of cardiovascular events in a subject” (Amarin Pharmaceuticals Ireland Limited, priority 2018, dated 2022)
